Experimental data taken from the supplement of paper PMC10307832.

Key:
Experiment in all cases: relative viability (nuclei count vs DMSO), 5 days (fraction); higher = more cells survive
[1] = compound: C1/C(=C\C2=CC=CS2)/C(=O)/C(=C/C3=CC=CS3)/C1 + Nc1ncn([C@H]2C[C@H](O)[C@@H](CO)O2)c(=O)n1 [Decitabine] (partner 2 µM)
Outline: (§1)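 Relative viability is defined as nuclei in treated wells over nuclei in vehicle wells. Duplicate plates were run and medians reported. Lung cancer cell lines in 1536-well plates were dosed by pin tool one day after seeding, with one drug or with a fixed anchor-drug dose plus five library-drug doses (not always all listed) in √10 steps, and nuclei were counted after 5 days.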

TPCA-1 + AZD7762 = compound: C1=CC(=CC=C1C2=CC(=C(S2)NC(=O)N)C(=O)N)F [TPCA-1] + NC(=O)Nc1cc(-c2cccc(F)c2)sc1C(=O)N[C@H]1CCCNC1 [AZD7762] (partner 0.2 µM)
Outline: as §1

[2] = compound: C1/C(=C\C2=CC=CS2)/C(=O)/C(=C/C3=CC=CS3)/C1 + COc1cccc2cc(-c3nc([C@H]4CC[C@H](C(=O)O)CC4)n4ncnc(N)c34)[nH]c12 [OSI-027] (partner 0.5 µM)
Outline: as §1

TPCA-1 + Navitoclax = compound: C1=CC(=CC=C1C2=CC(=C(S2)NC(=O)N)C(=O)N)F [TPCA-1] + CC1(C)CCC(c2ccc(Cl)cc2)=C(CN2CCN(c3ccc(C(=O)NS(=O)(=O)c4ccc(N[C@H](CCN5CCOCC5)CSc5ccccc5)c(S(=O)(=O)C(F)(F)F)c4)cc3)CC2)C1 [Navitoclax] (partner 0.5 µM)
Outline: as §1

Row | Cell Line | relative viability ([1]; first compound 0.2 µM) | relative viability ([1]; first compound 0.6325 µM) | relative viability ([1]; first compound 2 µM) | relative viability ([1]; first compound 6.325 µM) | relative viability ([1]; first compound 20 µM) | relative viability (TPCA-1 + AZD7762; first compound 0.04 µM) | relative viability (TPCA-1 + AZD7762; first compound 0.1265 µM) | relative viability (TPCA-1 + AZD7762; first compound 0.4 µM) | relative viability (TPCA-1 + AZD7762; first compound 1.265 µM) | relative viability (TPCA-1 + AZD7762; first compound 4 µM) | relative viability ([2]; first compound 0.2 µM) | relative viability ([2]; first compound 0.6325 µM) | relative viability ([2]; first compound 2 µM) | relative viability ([2]; first compound 6.325 µM) | relative viability ([2]; first compound 20 µM) | relative viability (TPCA-1 + Navitoclax; first compound 0.04 µM) | relative viability (TPCA-1 + Navitoclax; first compound 0.1265 µM) | relative viability (TPCA-1 + Navitoclax; first compound 0.4 µM) | relative viability (TPCA-1 + Navitoclax; first compound 1.265 µM) | relative viability (TPCA-1 + Navitoclax; first compound 4 µM)
1 | NCI-H460 | 0.454 | 0.548 | 0.481 | 0.473 | 0.449 | 0.676 | 0.684 | 0.738 | 0.622 | 0.731 | 0.743 | 0.81 | 0.747 | 0.515 | 0.605 | 1.24 | 1.04 | 1 | 1.1 | 0.709
2 | NCI-H1755 | 0.74 | 0.706 | 0.743 | 0.676 | 0.706 | 0.444 | 0.634 | 0.402 | 0.337 | 0.378 | 0.787 | 0.709 | 0.79 | 0.683 | 0.759 | 0.998 | 0.95 | 0.949 | 0.847 | 0.696
3 | NCI-H1734 | 0.582 | 0.427 | 0.523 | 0.403 | 0.486 | 0.558 | 0.504 | 0.604 | 0.639 | 0.374 | 0.584 | 0.668 | 0.741 | 0.519 | 0.593 | 0.893 | 0.759 | 0.871 | 0.779 | 0.697
4 | EPLC-272H | 0.379 | 0.349 | 0.446 | 0.282 | 0.339 | 0.368 | 0.26 | 0.314 | 0.26 | 0.276 | 0.349 | 0.284 | 0.285 | 0.238 | 0.265 | 1.28 | 0.969 | 0.934 | 1.01 | 0.821
5 | NCI-H2126 | 0.564 | 0.624 | 0.547 | 0.582 | 0.587 | 0.996 | 0.936 | 1.03 | 0.978 | 0.87 | 0.74 | 0.645 | 0.711 | 0.598 | 0.774 | 0.866 | 0.791 | 0.899 | 0.812 | 0.767
